Consider 19 compounds from patent publication US11084829B2, “Ubiquitin-specific-processing protease 7 (USP7) modulators and uses thereof” (RAPT THERAPEUTICS, INC., priority 2018, dated 2021).

For the experiment, the target named is USP7 (Homo sapiens, UniProt Q93009). Briefly: USP7 inhibitory potency (IC50). In kind it is biochemical. As for the experimental part:
Activity for compounds described herein is provided in Table 2, wherein potency levels are provided as follows: (Potency: USP7 IC50: A<0.01 μM; B=0.01-0.1 μM; C=>0.1 μM.

USP7, sequence (Q93009 whole entry): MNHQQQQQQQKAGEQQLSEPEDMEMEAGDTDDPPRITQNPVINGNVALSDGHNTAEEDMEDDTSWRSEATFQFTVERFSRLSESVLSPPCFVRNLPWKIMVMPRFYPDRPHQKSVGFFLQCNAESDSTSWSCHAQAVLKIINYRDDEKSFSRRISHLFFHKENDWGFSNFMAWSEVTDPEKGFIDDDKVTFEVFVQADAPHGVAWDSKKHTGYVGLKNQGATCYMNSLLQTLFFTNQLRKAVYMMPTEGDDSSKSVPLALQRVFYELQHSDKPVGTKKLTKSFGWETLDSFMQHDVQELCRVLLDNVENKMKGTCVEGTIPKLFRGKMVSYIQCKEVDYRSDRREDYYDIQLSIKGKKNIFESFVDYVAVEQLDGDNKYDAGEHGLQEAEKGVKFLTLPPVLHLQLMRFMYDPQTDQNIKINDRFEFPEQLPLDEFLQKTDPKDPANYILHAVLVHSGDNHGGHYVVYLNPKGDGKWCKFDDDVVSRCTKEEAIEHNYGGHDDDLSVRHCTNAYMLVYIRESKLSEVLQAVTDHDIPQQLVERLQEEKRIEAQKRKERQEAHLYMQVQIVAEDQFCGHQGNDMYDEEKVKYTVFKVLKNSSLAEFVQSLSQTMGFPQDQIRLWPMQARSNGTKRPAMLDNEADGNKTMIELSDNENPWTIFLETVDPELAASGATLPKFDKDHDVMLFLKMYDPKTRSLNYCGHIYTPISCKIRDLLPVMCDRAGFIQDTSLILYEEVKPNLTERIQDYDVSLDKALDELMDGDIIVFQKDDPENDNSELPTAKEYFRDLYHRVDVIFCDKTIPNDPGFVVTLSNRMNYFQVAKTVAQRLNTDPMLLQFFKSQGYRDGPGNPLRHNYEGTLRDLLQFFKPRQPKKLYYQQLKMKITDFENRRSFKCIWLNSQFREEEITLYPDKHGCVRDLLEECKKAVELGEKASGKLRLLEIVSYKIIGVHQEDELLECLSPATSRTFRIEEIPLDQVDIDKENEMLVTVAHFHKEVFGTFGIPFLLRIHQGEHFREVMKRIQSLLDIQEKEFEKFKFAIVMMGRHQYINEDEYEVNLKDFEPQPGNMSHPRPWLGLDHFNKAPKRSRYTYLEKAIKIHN

On to `Cc1cc(Cl)cc(-c2ccnc3cc(CN4C(=O)CCC4=O)sc23)c1CN1C[C@@H](C)N[C@H](C)C1` [Example 26, 1-((7-(5-chloro-2-(((3R,5R)-3,5-dimethylpiperazin-1-yl)methyl)-3-methylphenyl)thieno[3,2-b]pyridin-2-yl)methyl)pyrrolidine-2,5-dione], for which the IC50 was under 0.01 µM.

`Cc1cc(Cl)cc(-c2ccnc3cc(CN4C(=O)CCC4=O)sc23)c1CN1[C@H](C)CNC[C@H]1C` [Example 27, 1-((7-(5-chloro-2-(((2R,6R)-2,6-dimethylpiperazin-1-yl)methyl)-3-methylphenyl)thieno[3,2-b]pyridin-2-yl)methyl)pyrrolidine-2,5-dione] displayed an IC50 of 0.01 to 0.1 µM.

As to `Cc1cc(Cl)cc(-c2ccnc3cc(CN4C(=O)C5C(C4=O)C5(C)C)sc23)c1CN1[C@@H](C)CNC[C@@H]1C` (stereo partly drawn) [Example 28, 3-((7-(5-chloro-2-(((2S,6S)-2,6-dimethylpiperazin-1-yl)methyl)-3-methylphenyl)thieno[3,2-b]pyridin-2-yl)methyl)-6,6-dimethyl-3-azabicyclo[3.1.0]hexane-2,4-dione], the IC50 is under 0.01 µM.

In turn, `Cc1cc(Cl)cc(-c2ccnc3cc(CN4C(=O)CCC4=O)sc23)c1CN1[C@@H](C)CN(C)C[C@@H]1C` [Example 29, 1-((7-(5-chloro-3-methyl-2-(((2S,6S)-2,4,6-trimethylpiperazin-1-yl)methyl)phenyl)thieno[3,2-b]pyridin-2-yl)methyl)pyrrolidine-2,5-dione] yielded an IC50 of under 0.01 µM.

On to `Cc1cc(Cl)cc(-c2ccnc3cc(CN4C(=O)CCC4=O)sc23)c1CN1[C@@H](C)CN(C(C)C)C[C@@H]1C` [Example 30, 1-((7-(5-chloro-2-(((2S,6S)-4-isopropyl-2,6-dimethylpiperazin-1-yl)methyl)-3-methylphenyl)thieno[3,2-b]pyridin-2-yl)methyl)pyrrolidine-2,5-dione], for which the IC50 is under 0.01 µM.

Consider `Cc1cc(Cl)cc(-c2ccnc3cc(CN4C(=O)C5CC5C4=O)sc23)c1CN1[C@@H](C)CN(C(C)C)C[C@@H]1C` (stereo partly drawn) [Example 32, 3-((7-(5-chloro-2-(((2S,6S)-4-isopropyl-2,6-dimethylpiperazin-1-yl)methyl)-3-methylphenyl)thieno[3,2-b]pyridin-2-yl)methyl)-3-azabicyclo[3.1.0]hexane-2,4-dione], for which the IC50 was under 0.01 µM.

`Cc1cc(Cl)cc(-c2ccnc3cc(CN4C(=O)C5CC5C4=O)sc23)c1CN1C[C@H](C)NC[C@@H]1C` (stereo partly drawn) [Example 33, 3-((7-(5-chloro-2-(((2S,5 S)-2,5-dimethylpiperazin-1-yl)methyl)-3-methylphenyl)thieno[3,2-b]pyridin-2-yl)methyl)-3-azabicyclo[3.1.0]hexane-2,4-dione]: the IC50 is under 0.01 µM.

With `Cc1cc(Cl)cc(-c2ccnc3cc(CN4C(=O)C5CC5C4=O)sc23)c1CN1C[C@@H](C)NC[C@H]1C` (stereo partly drawn) [Example 34, 3-((7-(5-chloro-2-(((2R,5R)-2,5-dimethylpiperazin-1-yl)methyl)-3-methylphenyl)thieno[3,2-b]pyridin-2-yl)methyl)-3-azabicyclo[3.1.0]hexane-2,4-dione], the IC50 was under 0.01 µM.

`Cc1cc(Cl)cc(-c2ccnc3cc(CN4C(=O)C5CC5C4=O)sc23)c1C(=O)N1[C@@H](C)CNC[C@@H]1C` (stereo partly drawn) [Example 35, 3-((7-(5-chloro-2-((2S,6S)-2,6-dimethylpiperazine-1-carbonyl)-3-methylphenyl)thieno[3,2-b]pyridin-2-yl)methyl)-3-azabicyclo[3.1.0]hexane-2,4-dione] had an IC50 of 0.01 to 0.1 µM.

On to `Cc1cc(Cl)cc(-c2ccnc3cc(CN4C(=O)C5CC5C4=O)sc23)c1CN1C[C@@H](C)NC[C@@H]1C` (stereo partly drawn) [Example 36, 3-((7-(5-chloro-2-(((2S,5R)-2,5-dimethylpiperazin-1-yl)methyl)-3-methylphenyl)thieno[3,2-b]pyridin-2-yl)methyl)-3-azabicyclo[3.1.0]hexane-2,4-dione], for which the IC50 lay within 0.01 to 0.1 µM.

`Cc1cc(Cl)cc(-c2ccnc3cc(CN4C(=O)C5CC5C4=O)sc23)c1CN1C[C@H](C)NC[C@H]1C` (stereo partly drawn) [Example 37, 3-((7-(5-chloro-2-(((2R,5 S)-2,5-dimethylpiperazin-1-yl)methyl)-3-methylphenyl)thieno[3,2-b]pyridin-2-yl)methyl)-3-azabicyclo[3.1.0]hexane-2,4-dione] yielded an IC50 of under 0.01 µM.

Turning to `Cc1cc(Cl)cc(-c2ccnc3cc(CN4C(=O)C5CC5C4=O)sc23)c1CN1CCCNCC1C` (stereo not shown) [Example 38, 3-((7-(5-chloro-3-methyl-2-((2-methyl-1,4-diazepan-1-yl)methyl)phenyl)thieno[3,2-b]pyridin-2-yl)methyl)-3-azabicyclo[3.1.0]hexane-2,4-dione], the IC50 was under 0.01 µM.

Take `Cc1cc(Cl)cc(-c2ccnc3cc(CN4C(=O)C5C(C4=O)C5(C)C)sc23)c1CN1C[C@@H](C)NC[C@@H]1C` (stereo partly drawn) [Example 39, 3-((7-(5-chloro-2-(((2S,5R)-2,5-dimethylpiperazin-1-yl)methyl)-3-methylphenyl)thieno[3,2-b]pyridin-2-yl)methyl)-6,6-dimethyl-3-azabicyclo[3.1.0]hexane-2,4-dione]: the IC50 is under 0.01 µM.

As to `Cc1cc(Cl)cc(-c2ccnc3cc(CN4C(=O)C5CC5C4=O)sc23)c1CN1CCNC(=O)C1C` (stereo not shown) [Example 40, 3-((7-(5-chloro-3-methyl-2-((2-methyl-3-oxopiperazin-1-yl)methyl)phenyl)thieno[3,2-b]pyridin-2-yl)methyl)-3-azabicyclo[3.1.0]hexane-2,4-dione], the IC50 fell in the range of 0.01 to 0.1 µM.

In turn, `Cc1cc(Cl)cc(-c2ccnc3cc(CN4C(=O)C5CC5C4=O)sc23)c1CN1CCCNC(C)C1` (stereo not shown) [Example 41, 3-((7-(5-chloro-3-methyl-2-((3-methyl-1,4-diazepan-1-yl)methyl)phenyl)thieno[3,2-b]pyridin-2-yl)methyl)-3-azabicyclo[3.1.0]hexane-2,4-dione] displayed a 50% inhibitory concentration (IC50) of 0.01 to 0.1 µM.

Take `C[C@@H]1CN(Cc2c(Cl)cc(Cl)cc2-c2ccnc3cc(CN4C(=O)C5CC5C4=O)sc23)[C@@H](C)CN1` (stereo partly drawn) [Example 43, 3-((7-(3,5-dichloro-2-(((2S,5R)-2,5-dimethylpiperazin-1-yl)methyl)phenyl)thieno[3,2-b]pyridin-2-yl)methyl)-3-azabicyclo[3.1.0]hexane-2,4-dione]: the IC50 was under 0.01 µM.

`Cc1cc(Cl)cc(-c2ccnc3cc(CN4C(=O)CCC4=O)sc23)c1CN1C[C@@H](C)NC[C@@H]1C` [Example 44, 1-((7-(5-chloro-2-(((2S,5R)-2,5-dimethylpiperazin-1-yl)methyl)-3-methylphenyl)thieno[3,2-b]pyridin-2-yl)methyl)pyrrolidine-2,5-dione] yielded an IC50 of under 0.01 µM.

Compound `Cc1cc(Cl)cc(-c2ccnc3cc(CN4C(=O)CCCC4=O)sc23)c1CN1C[C@@H](C)NC[C@@H]1C` [Example 45, 1-((7-(5-chloro-2-(((2S,5R)-2,5-dimethylpiperazin-1-yl)methyl)-3-methylphenyl)thieno[3,2-b]pyridin-2-yl)methyl)piperidine-2,6-dione] gave an IC50 of under 0.01 µM.

For the compound `Cc1cc(Cl)cc(-c2ccnc3cc(Cn4c(=O)ccn(C)c4=O)sc23)c1CN1C[C@@H](C)NC[C@@H]1C` [Example 46, 3-((7-(5-chloro-2-(((2S,5R)-2,5-dimethylpiperazin-1-yl)methyl)-3-methylphenyl)thieno[3,2-b]pyridin-2-yl)methyl)-1-methylpyrimidine-2,4(1H,3H)-dione], the IC50 is under 0.01 µM.
